From patent US6914045B2, “Glycopeptide antibiotics” (Wyeth Holdings Corporation, priority 2001, dated 2005)
In brackets after ≈: the same amount, converted by molar mass.

Key:
Enterococcus sp. = experiment: in vitro antibacterial evaluation, MIC by broth dilution; format: cell-based; conditions: broth dilution, 18 hours at 35° C.
Method in brief: (§1)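 Read-out: the lowest concentration at which the test strain fails to grow. Serial dilutions (64-0.06 μg/mL) in Muller-Hinton II […], 5×10^5 CFU/mL inoculum, NCCLS M7-A2 procedure.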

Escherichia coli = experiment: as above; format: cell-based; conditions: 18 hours at 35° C., strain ATCC 25922
Method in brief: as §1

Staphylococcus sp. = experiment: as above; format: cell-based; conditions: broth dilution, 18 hours at 35° C.
Method in brief: as §1

Streptococcus sp. = experiment: as above; format: cell-based; conditions: broth dilution, 18 hours at 35° C.
Method in brief: as §1

[1] = system: Enterococcus faecalis (GC 6189); experiment: acute lethal infection in mice; format: in vivo; conditions: female CD-1 mice, intraperitoneal challenge, intravenous 30 min. after infection, 7 day survival
Method in brief: (§2)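 Female CD-1 mice (20±2 g) got an intraperitoneal bacterial challenge lethal to untreated controls within 24–48 hr. Compound was dosed intravenously 30 min after infection, five mice per dose. ED50 was calculated from 7-day survival pooled across 3 tests.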

[2] = system: Staphylococcus aureus-SMITH (GC 4543); experiment: acute lethal infection in mice; format: in vivo; conditions: acute lethal infection, female CD-1 mice, intraperitoneal challenge, intravenous 30 min. after infection, 7 day survival
Method in brief: as §2

[3] = system: Streptococcus pneumoniae (GC 1894); experiment: acute lethal infection in mice; format: in vivo; conditions: female CD-1 mice, intraperitoneal challenge, intravenous 30 min. after infection, 7 day survival
Method in brief: as §2

SMILES: CCCC(C)C1OCC2OC(OC3C(CO)OC(Oc4ccc(CC5NC(=O)C(C(C)c6ccccc6)NC(=O)CNC(=O)C(CO)NC(=O)C(C(O)C6CNC(=N)N6C6OC(CO)C(O)C(O)C6O)NC(=O)C(C(O)C6CNC(=N)N6)NC5=O)cc4)C(O)C3O)C(O)C(O)C2O1 (stereo not drawn) [Example 111, Cyclo[glycyl-β-methylphenylalanyl-O-[4-O-[4,6-O-(2-methylpentylidene)hexopyranosyl]-hexopyranosyl]tyrosyl-3-(2-iminoimidazolidin-4-yl)seryl-3-(3-hexopyranosyl-2-iminoimidazolidin-4-yl)serylseryl]]
- MIC Enterococcus avium (GC 4558) (Enterococcus sp.; Enterococcus avium (GC 4558)): 2 µg/mL (≈ 1.45 µM)
- MIC Enterococcus faecalis (ATCC 29212) (Enterococcus sp.; Enterococcus faecalis (ATCC 29212)): 2 µg/mL (≈ 1.45 µM)
- MIC Enterococcus faecalis (GC 2242) (Enterococcus sp.; Enterococcus faecalis (GC 2242)): 1 µg/mL (≈ 0.726 µM)
- MIC Enterococcus faecalis (GC 4552) (Enterococcus sp.; Enterococcus faecalis (GC 4552)): 2 µg/mL (≈ 1.45 µM)
- MIC Enterococcus faecalis (GC 4553) (Enterococcus sp.; Enterococcus faecalis (GC 4553)): 2 µg/mL (≈ 1.45 µM)
- MIC Enterococcus faecalis (GC 4554) (Enterococcus sp.; Enterococcus faecalis (GC 4554)): 2 µg/mL (≈ 1.45 µM)
- MIC Enterococcus faecium (GC 2243) (Enterococcus sp.; Enterococcus faecium (GC 2243)): 1 µg/mL (≈ 0.726 µM)
- MIC Enterococcus faecium (GC 4556) (Enterococcus sp.; Enterococcus faecium (GC 4556)): 2 µg/mL (≈ 1.45 µM)
- MIC Enterococcus faecium (GC 4557) (Enterococcus sp.; Enterococcus faecium (GC 4557)): 0.5 µg/mL (≈ 0.363 µM)
- MIC Enterococcus faecalis (ATCC 29212) (Enterococcus sp.; strain ATCC 29212): 2 µg/mL (≈ 1.45 µM)
- MIC Enterococcus faecalis (GC 2242) (Enterococcus sp.; strain GC 2242): 1 µg/mL (≈ 0.726 µM)
- MIC Enterococcus faecium (GC 2243) (Enterococcus sp.; strain GC 2243): 1 µg/mL (≈ 0.726 µM)
- MIC Enterococcus faecalis (GC 4552) (Enterococcus sp.; strain GC 4552): 2 µg/mL (≈ 1.45 µM)
- MIC Enterococcus faecalis (GC 4553) (Enterococcus sp.; strain GC 4553): 2 µg/mL (≈ 1.45 µM)
- MIC Enterococcus faecalis (GC 4554) (Enterococcus sp.; strain GC 4554): 2 µg/mL (≈ 1.45 µM)
- MIC Enterococcus faecium (GC 4556) (Enterococcus sp.; strain GC 4556): 2 µg/mL (≈ 1.45 µM)
- MIC Enterococcus faecium (GC 4557) (Enterococcus sp.; strain GC 4557): 0.5 µg/mL (≈ 0.363 µM)
- MIC Enterococcus avium (GC 4558) (Enterococcus sp.; strain GC 4558): 2 µg/mL (≈ 1.45 µM)
- MIC Escherichia coli (ATCC 25922) (Escherichia coli): 32 µg/mL (≈ 23.2 µM)
- MIC Coagulase Negative Staphylococcus (GC 4547) (Staphylococcus sp.): 0.5 µg/mL (≈ 0.363 µM)
- MIC Coagulase Negative Staphylococcus (GC 4548) (Staphylococcus sp.): 1 µg/mL (≈ 0.726 µM)
- MIC Coagulase Negative Staphylococcus (GC 4549) (Staphylococcus sp.): 0.5 µg/mL (≈ 0.363 µM)
- MIC Coagulase Negative Staphylococcus (GC 4551) (Staphylococcus sp.): 1 µg/mL (≈ 0.726 µM)
- MIC Coagulase Negative Staphylococcus (ID-3941) (Staphylococcus sp.): 1 µg/mL (≈ 0.726 µM)
- MIC Staphylococcus aureus (ATCC 29213) (Staphylococcus sp.): 1 µg/mL (≈ 0.726 µM)
- MIC Staphylococcus aureus (GC 1131) (Staphylococcus sp.): 1 µg/mL (≈ 0.726 µM)
- MIC Staphylococcus aureus (GC 4541) (Staphylococcus sp.): 1 µg/mL (≈ 0.726 µM)
- MIC Staphylococcus aureus (GC 4542) (Staphylococcus sp.): 1 µg/mL (≈ 0.726 µM)
- MIC Staphylococcus aureus (GC 4544) (Staphylococcus sp.): 1 µg/mL (≈ 0.726 µM)
- MIC Staphylococcus aureus (GC 4545) (Staphylococcus sp.): 1 µg/mL (≈ 0.726 µM)
- MIC Staphylococcus aureus-SMITH (GC 4543) (Staphylococcus sp.): 1 µg/mL (≈ 0.726 µM)
- MIC Staphylococcus haemolyticus (GC 4546) (Staphylococcus sp.): 1 µg/mL (≈ 0.726 µM)
- MIC Staphylococcus aureus (GC 1131) (Staphylococcus sp.; inoculum 5×10^5 CFU/mL, strain GC 1131): 1 µg/mL (≈ 0.726 µM)
- MIC Staphylococcus aureus (ATCC 29213) (Staphylococcus sp.; strain ATCC 29213): 1 µg/mL (≈ 0.726 µM)
- MIC Staphylococcus aureus (GC 4541) (Staphylococcus sp.; strain GC 4541): 1 µg/mL (≈ 0.726 µM)
- MIC Staphylococcus aureus (GC 4542) (Staphylococcus sp.; strain GC 4542): 1 µg/mL (≈ 0.726 µM)
- MIC Staphylococcus aureus (GC 4544) (Staphylococcus sp.; strain GC 4544): 1 µg/mL (≈ 0.726 µM)
- MIC Staphylococcus aureus (GC 4545) (Staphylococcus sp.; strain GC 4545): 1 µg/mL (≈ 0.726 µM)
- MIC Staphylococcus haemolyticus (GC 4546) (Staphylococcus sp.; strain GC 4546): 1 µg/mL (≈ 0.726 µM)
- MIC Coagulase Negative Staphylococcus (GC 4547) (Staphylococcus sp.; strain GC 4547): 0.5 µg/mL (≈ 0.363 µM)
- MIC Coagulase Negative Staphylococcus (GC 4548) (Staphylococcus sp.; strain GC 4548): 1 µg/mL (≈ 0.726 µM)
- MIC Coagulase Negative Staphylococcus (GC 4549) (Staphylococcus sp.; strain GC 4549): 0.5 µg/mL (≈ 0.363 µM)
- MIC Coagulase Negative Staphylococcus (GC 4551) (Staphylococcus sp.; strain GC 4551): 1 µg/mL (≈ 0.726 µM)
- MIC Coagulase Negative Staphylococcus (ID-3941) (Staphylococcus sp.; strain ID-3941): 1 µg/mL (≈ 0.726 µM)
- MIC Staphylococcus aureus-SMITH (GC 4543) (Staphylococcus sp.; strain SMITH GC 4543): 1 µg/mL (≈ 0.726 µM)
- MIC Streptococcus agalactiae (GC 4564) (Streptococcus sp.; Streptococcus agalactiae (GC 4564)): 1 µg/mL (≈ 0.726 µM)
- MIC Streptococcus pneumoniae (GC 4565) (Streptococcus sp.; Streptococcus pneumoniae (GC 4565)): 0.5 µg/mL (≈ 0.363 µM)
- MIC Streptococcus pyogenes (ID-3187) (Streptococcus sp.; Streptococcus pyogenes (ID-3187)): 0.5 µg/mL (≈ 0.363 µM)
- MIC Streptococcus agalactiae (GC 4564) (Streptococcus sp.; strain GC 4564): 1 µg/mL (≈ 0.726 µM)
- MIC Streptococcus pneumoniae (GC 4565) (Streptococcus sp.; strain GC 4565): 0.5 µg/mL (≈ 0.363 µM)
- MIC Streptococcus pyogenes (ID-3187) (Streptococcus sp.; strain ID-3187): 0.5 µg/mL (≈ 0.363 µM)
- median effective dose (ED50), Enterococcus faecalis (GC 6189) [1]: 0.28 mg/kg
- median effective dose (ED50), Staphylococcus aureus-SMITH (GC 4543) [2]: 0.14 mg/kg
- median effective dose (ED50), Streptococcus pneumoniae (GC 1894) [3]: 0.03 mg/kg
